Measurements as given in publication PMC7486443, “Generation of Phenothiazine with Potent Anti-TLK1 Activity for Prostate Cancer Therapy” (iScience, 2020).

Columns and labels:
Assay in all cases: biochemical
Set-up in all cases: DiscoverX KINOMEscan scanMAX competition binding panel, single concentration, percent of control; remaining binding: dose or concentration left out as unconfirmed
Details in all cases: KINOMEscan binding, percent of control; read-out: Table S4_SCANMAX REPORT - related to Fig. 1 / Percent Control
PIP5K1A = PIP5K1A (Homo sapiens, UniProt Q99755)
Excerpt: (§1) Certain PTH are potent inhibitors of TLK1 ([Ronald et al., 2013]), and by inference TLK2, as these proteins must homo- and hetero-dimerize for full activation ([Mortuza et al., 2018]), in addition to being highly similar in sequence and structure, and thus similarly targetable. […] Two noteworthy observations are that PTHs are structurally different from many known ATP competitive inhibitors, and that J54 was carefully designed based on considerations reported previously for the THD—the Kinomescan has confirmed that J54 is specific to TLKs. We should point out that although PTH were the first reported inhibitors of TLKs ([Ronald et al., 2013]), other inhibitors particularly of TLK2 have since been reported ([Kim et al., 2016]), some based on structure docking ([Mortuza et al., 2018]), although neither their potency and effects in vivo nor their potential off-target effects have not been reported as they were selected from libraries of kinase inhibitors. Supplementary file mmc2.xlsx: Table S4. SCANMAX Table, Related to Figure 1 Kinomescan of J54 inhibitory activity on human kinases.

KIT = KIT (Homo sapiens, UniProt P10721)
Excerpt: as §1

HCK = HCK (Homo sapiens, UniProt P08631)
Excerpt: as §1

BUB1 = BUB1 (Homo sapiens, UniProt O43683)
Excerpt: as §1

TLK1 = TLK1 (Homo sapiens, UniProt Q9UKI8)
Excerpt: as §1

[1] = target: T1, RSK3(Kin.Dom.1-N-terminal) (Homo sapiens, UniProt Q15349)
T1 construct: gene RPS6KA2; Kin.Dom.1-N-terminal
Excerpt: as §1

MEK6 = target: T2, MEK6 (Homo sapiens, UniProt P52564)
T2 construct: gene MAP2K6
Excerpt: as §1

[2] = target: T3, ABL1(F317L)-phosphorylated (Homo sapiens, UniProt P00519, F317L)
T3 construct: phosphorylated
Excerpt: as §1

CHEK1 = CHEK1 (Homo sapiens, UniProt O14757)
Excerpt: as §1

FLT3(D835V) = FLT3(D835V) (Homo sapiens, UniProt P36888, D835V)
Excerpt: as §1

GCN2(Kin.Dom.2,S808G) = target: T4, GCN2(Kin.Dom.2,S808G) (Homo sapiens, UniProt Q9P2K8, S808G)
T4 construct: gene EIF2AK4; Kin.Dom.2
Excerpt: as §1

DMPK = DMPK (Homo sapiens, UniProt Q09013)
Excerpt: as §1

FGFR3(G697C) = FGFR3(G697C) (Homo sapiens, UniProt P22607, G697C)
Excerpt: as §1

CDKL1 = CDKL1 (Homo sapiens, UniProt Q00532)
Excerpt: as §1

SRPK3 = SRPK3 (Homo sapiens, UniProt Q9UPE1)
Excerpt: as §1

JNK2 = target: T5, JNK2 (Homo sapiens, UniProt P45984)
T5 construct: gene MAPK9
Excerpt: as §1

TNIK = TNIK (Homo sapiens, UniProt Q9UKE5)
Excerpt: as §1

TGFBR2 = TGFBR2 (Homo sapiens, UniProt P37173)
Excerpt: as §1

Sequence of SRPK3 (Q9UPE1 whole entry): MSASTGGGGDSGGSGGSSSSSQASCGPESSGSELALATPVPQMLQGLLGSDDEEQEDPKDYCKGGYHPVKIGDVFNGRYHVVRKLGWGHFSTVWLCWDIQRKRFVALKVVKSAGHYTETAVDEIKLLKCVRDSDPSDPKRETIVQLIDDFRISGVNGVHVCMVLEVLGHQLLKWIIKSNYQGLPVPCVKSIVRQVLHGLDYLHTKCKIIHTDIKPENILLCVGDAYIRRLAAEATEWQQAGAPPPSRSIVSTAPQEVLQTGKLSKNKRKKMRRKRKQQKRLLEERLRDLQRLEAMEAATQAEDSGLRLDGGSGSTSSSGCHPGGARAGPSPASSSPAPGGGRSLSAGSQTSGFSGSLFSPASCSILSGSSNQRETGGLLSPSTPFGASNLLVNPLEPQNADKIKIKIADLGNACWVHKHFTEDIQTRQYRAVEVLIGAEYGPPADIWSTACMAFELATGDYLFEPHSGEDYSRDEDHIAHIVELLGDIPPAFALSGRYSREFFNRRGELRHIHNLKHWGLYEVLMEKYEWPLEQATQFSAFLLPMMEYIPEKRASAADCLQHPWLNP
T1 sequence (Q15349 whole entry): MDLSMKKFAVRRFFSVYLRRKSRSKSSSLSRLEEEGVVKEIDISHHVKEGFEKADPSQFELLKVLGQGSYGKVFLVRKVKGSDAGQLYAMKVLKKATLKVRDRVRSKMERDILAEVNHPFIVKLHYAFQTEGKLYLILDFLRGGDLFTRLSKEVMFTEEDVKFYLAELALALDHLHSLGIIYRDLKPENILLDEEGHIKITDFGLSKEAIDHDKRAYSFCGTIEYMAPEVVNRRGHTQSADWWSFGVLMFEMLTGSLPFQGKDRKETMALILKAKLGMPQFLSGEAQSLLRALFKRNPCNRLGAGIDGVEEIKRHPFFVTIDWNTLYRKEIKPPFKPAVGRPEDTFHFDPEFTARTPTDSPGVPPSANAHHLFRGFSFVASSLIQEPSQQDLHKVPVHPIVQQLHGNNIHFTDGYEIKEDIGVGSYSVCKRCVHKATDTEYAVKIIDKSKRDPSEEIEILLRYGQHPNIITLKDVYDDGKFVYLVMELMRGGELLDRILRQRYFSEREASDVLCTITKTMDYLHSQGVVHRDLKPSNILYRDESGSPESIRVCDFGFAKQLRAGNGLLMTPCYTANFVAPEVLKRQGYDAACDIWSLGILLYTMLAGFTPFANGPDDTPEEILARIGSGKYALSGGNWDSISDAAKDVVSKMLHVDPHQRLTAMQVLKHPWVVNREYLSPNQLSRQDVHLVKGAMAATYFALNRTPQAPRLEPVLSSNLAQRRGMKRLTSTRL
Sequence of TLK1 (Q9UKI8 whole entry): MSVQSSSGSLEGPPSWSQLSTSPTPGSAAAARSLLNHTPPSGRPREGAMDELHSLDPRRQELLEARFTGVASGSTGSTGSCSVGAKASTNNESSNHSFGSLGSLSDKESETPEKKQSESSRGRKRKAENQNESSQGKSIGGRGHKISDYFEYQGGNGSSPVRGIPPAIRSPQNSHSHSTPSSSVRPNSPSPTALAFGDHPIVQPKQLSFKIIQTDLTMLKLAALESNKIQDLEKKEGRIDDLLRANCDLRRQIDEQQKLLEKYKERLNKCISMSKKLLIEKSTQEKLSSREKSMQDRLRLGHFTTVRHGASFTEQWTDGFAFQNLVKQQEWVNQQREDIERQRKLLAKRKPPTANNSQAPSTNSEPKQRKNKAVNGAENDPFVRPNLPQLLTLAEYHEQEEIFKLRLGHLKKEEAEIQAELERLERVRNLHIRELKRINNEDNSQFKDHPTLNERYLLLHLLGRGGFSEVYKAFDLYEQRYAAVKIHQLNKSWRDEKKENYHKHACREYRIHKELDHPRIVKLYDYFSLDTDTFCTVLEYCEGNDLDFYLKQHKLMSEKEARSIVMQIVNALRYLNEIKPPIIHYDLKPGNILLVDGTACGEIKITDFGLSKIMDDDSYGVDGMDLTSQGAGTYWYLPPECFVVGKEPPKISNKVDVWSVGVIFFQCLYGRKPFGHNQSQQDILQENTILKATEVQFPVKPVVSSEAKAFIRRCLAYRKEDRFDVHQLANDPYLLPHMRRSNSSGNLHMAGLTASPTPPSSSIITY
T3 sequence (P00519 whole entry F317L): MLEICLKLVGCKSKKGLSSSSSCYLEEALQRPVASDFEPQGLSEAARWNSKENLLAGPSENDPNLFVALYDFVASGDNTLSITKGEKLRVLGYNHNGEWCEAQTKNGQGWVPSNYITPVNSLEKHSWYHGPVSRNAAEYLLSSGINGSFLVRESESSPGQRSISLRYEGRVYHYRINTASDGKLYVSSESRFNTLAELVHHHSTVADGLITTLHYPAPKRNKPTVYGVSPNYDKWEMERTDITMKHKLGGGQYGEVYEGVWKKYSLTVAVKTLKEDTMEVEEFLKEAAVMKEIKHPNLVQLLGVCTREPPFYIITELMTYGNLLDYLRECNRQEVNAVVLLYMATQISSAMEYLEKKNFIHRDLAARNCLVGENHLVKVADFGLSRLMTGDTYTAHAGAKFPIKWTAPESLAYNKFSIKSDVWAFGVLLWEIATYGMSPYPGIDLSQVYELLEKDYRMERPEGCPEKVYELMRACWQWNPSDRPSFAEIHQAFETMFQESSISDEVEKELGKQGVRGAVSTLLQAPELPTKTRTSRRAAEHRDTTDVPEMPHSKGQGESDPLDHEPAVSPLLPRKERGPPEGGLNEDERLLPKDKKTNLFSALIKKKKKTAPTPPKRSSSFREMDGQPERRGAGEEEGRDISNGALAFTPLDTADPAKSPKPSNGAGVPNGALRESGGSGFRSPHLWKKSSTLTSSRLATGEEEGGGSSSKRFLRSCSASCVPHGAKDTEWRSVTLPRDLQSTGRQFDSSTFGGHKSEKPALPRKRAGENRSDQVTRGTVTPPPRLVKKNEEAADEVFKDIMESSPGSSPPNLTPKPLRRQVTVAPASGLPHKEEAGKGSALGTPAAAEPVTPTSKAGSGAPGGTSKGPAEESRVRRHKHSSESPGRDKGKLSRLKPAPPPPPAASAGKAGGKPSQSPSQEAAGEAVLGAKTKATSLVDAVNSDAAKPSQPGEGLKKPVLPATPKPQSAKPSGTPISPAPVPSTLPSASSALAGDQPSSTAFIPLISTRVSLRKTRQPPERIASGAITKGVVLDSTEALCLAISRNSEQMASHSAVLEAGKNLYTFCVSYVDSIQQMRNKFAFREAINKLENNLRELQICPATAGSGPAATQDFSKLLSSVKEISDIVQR
Sequence of DMPK (Q09013 whole entry): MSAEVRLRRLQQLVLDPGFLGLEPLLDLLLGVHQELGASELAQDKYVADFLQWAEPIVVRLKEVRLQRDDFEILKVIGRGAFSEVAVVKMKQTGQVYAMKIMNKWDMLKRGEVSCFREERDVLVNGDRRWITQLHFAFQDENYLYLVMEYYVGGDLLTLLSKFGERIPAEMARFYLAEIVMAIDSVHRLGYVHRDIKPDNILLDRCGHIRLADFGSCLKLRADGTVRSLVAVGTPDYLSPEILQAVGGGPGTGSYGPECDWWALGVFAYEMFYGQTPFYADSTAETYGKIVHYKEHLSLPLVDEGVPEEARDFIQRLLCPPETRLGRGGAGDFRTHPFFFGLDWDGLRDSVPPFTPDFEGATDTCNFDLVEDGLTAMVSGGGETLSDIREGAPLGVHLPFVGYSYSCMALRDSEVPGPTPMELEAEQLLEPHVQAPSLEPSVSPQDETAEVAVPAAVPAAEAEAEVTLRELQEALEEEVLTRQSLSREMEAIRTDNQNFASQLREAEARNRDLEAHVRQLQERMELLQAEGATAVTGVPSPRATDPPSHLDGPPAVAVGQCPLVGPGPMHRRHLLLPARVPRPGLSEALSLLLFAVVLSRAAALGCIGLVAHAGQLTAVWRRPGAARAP
Sequence of CDKL1 (Q00532 whole entry): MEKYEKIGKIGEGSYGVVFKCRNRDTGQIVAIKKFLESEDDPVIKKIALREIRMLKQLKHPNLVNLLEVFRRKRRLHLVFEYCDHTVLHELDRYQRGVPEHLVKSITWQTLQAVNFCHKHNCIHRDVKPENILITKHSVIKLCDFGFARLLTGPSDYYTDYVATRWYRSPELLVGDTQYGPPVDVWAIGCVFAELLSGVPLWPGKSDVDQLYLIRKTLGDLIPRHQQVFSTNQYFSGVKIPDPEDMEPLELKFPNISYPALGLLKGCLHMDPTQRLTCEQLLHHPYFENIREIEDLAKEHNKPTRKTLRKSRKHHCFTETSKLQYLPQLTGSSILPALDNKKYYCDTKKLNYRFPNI
Sequence of CHEK1 (O14757 whole entry): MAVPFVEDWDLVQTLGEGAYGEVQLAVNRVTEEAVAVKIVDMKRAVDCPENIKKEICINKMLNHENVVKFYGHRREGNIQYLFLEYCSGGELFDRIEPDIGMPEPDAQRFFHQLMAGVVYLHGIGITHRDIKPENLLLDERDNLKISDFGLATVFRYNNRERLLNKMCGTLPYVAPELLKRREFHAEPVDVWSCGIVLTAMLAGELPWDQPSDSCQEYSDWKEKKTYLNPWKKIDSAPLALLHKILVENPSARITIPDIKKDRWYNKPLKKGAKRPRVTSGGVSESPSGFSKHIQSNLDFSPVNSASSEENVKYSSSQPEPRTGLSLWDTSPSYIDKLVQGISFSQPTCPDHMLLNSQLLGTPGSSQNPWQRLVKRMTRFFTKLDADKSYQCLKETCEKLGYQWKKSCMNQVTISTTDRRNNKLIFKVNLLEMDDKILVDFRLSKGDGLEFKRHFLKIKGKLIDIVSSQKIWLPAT
T2 sequence (P52564 whole entry): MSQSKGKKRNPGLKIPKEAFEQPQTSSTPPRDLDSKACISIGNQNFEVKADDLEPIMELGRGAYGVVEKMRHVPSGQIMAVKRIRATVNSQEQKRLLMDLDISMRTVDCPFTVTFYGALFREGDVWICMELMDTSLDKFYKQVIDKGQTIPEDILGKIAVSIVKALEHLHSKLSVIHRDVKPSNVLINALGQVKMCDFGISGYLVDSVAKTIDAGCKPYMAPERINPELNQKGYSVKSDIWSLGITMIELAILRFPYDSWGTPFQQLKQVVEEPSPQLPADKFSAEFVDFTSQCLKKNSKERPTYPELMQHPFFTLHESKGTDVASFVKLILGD

Compound `c1ccc2c(c1)Sc1ccccc1N2CCN1CCOCC1` [J54] has a remaining binding (PIP5K1A) of 46%, a remaining binding (KIT) of 100% and a remaining binding (HCK) of 100%. The remaining binding (BUB1) was 79%, the remaining binding (TLK1) was 16% and the remaining binding [1] was 100%. It also gave a remaining binding (MEK6) of 96%, a remaining binding [2] of 99% and a remaining binding (CHEK1) of 100%. The remaining binding (FLT3(D835V)) was 46%, the remaining binding (GCN2(Kin.Dom.2,S808G)) was 100% and the remaining binding (DMPK) was 85%. It also gave a remaining binding (FGFR3(G697C)) of 100%, a remaining binding (CDKL1) of 79% and a remaining binding (SRPK3) of 100%. For the same compound, the remaining binding (JNK2) was 84%, the remaining binding (TNIK) was 98% and the remaining binding (TGFBR2) was 99%.
